Reference: US8343961B2, “Substituted heterocyclic compounds” (ArQule, Inc., priority 2009, dated 2013)

Legend:
[1] = target: T1, Tec kinase (Homo sapiens, UniProt P42680); test: Tec Kinase Activity Assay; type: biochemical; conditions: read-out: Tec % INH, at 30 uM
T1 sequence (P42680 1-631): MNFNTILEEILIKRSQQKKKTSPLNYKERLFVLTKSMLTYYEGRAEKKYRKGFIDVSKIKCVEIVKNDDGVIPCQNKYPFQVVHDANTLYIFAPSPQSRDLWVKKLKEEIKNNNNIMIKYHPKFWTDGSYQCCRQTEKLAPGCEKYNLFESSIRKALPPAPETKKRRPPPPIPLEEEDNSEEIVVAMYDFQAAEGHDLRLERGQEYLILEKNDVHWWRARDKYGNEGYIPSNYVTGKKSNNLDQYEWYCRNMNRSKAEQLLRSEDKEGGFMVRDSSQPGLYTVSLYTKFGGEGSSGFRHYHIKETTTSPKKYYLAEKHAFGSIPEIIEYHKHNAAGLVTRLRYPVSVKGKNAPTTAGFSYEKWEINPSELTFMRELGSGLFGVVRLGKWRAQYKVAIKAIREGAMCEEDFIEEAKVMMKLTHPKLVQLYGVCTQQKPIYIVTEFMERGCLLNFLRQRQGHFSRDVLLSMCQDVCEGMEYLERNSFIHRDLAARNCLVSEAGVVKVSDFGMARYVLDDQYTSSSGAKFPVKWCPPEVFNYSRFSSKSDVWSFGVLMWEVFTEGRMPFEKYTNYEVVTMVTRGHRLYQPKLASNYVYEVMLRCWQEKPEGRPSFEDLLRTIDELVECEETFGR
Experimental: The disclosed compounds were assayed for their ability to inhibit the activity of Tec kinase. Nunc Maxisorb plates were coated with streptavidin by overnight incubation with 100 μL per well of 1 μg/mL Streptavidin in DPBS. Prior to the start of the experiment, the plates were washed with TBST (3×200 μL) and blocked for at least 1 hour by adding 150 μL of 5% BSA/TBST. The plates were washed with TBST (3×200 μL/well) and left dry immediately before the capture step.
The test articles and controls (Staurosporine and Sutent) were prepared using the following assay buffer @ 3× desired final concentration (50 mM Tris-HCl, 0.02 mg/mL BSA, 10 mM MgCl2, 0.1 mM Na3VO4, 1 mM EGTA, 75 μM ATP0.01% NP-40, 2 mM DTT in 10% glycerol/water). In a reaction plate were added rapidly 20 μL test article (or control) and 20 μL TEC 0.25 ng/4. The plate was incubated for 30 minutes. To the reaction plate was added 20 μL of Pyk-2.5 ng/μL. The plate was incubated at room temperature for two hours. From the reaction plate, 50 μL was transferred to the streptavidin coated plate. The capture plate was incubated at room temperature for 30 minutes then washed 6× with TBST. To the capture plate was added 100 μL/well of Cell Signaling anti-phospho tyrosine at a dilution of 1:3000 in 2% BSA/TBST. The plate was incubated for one hour at room temperature then washed 6× with TBST. To the capture plate was added 100 μL/well of Alkaline Phosphatase Tagged Goat anti Mouse Antibody at a dilution of 1:4000 in 2% BSA/TBST. The plate was incubated for one hour at room temperature then washed 6× with TBST. The fluorescent readout was initiated by the addition of 100 μL/well of Attophos reagent (6 mg/10 mL). The reading was done on the Perkin Elmer Envision system.

[2] = system: NCI-H1299; test: MTS Cellular Assay, NCI-H1299; type: cell-based; conditions: Homo sapiens, NCI-H1299, 72 hours
Experimental: (§1) Cells were maintained at 37° C., 5% CO2 in DMEM media supplemented with 1% fetal bovine serum, penicillin/streptomycin and fungizone (Invitrogen). Cells were seeded into 96-well tissue culture plates at 3000 per well and cultured at 37° C. for 18 hours. Test compounds were dissolved and diluted to 300× in DMSO then further diluted 1:40 in DMEM before addition to cells (1:7.5 dilution). Cells were incubated with test compounds for 72 hours followed by incubation with tetrazolium compound (3-(4,5-dimethylthiazol-2-yl)-5-(3-carboxymethoxyphenyl)-2-(4-sulfophenyl)-2H-tetrazolium, inner salt; MTS) and the electron coupling reagent, phenazine methosulfate (PMS) for 4 hours. […] The ability of compounds to inhibit cell growth in this assay is correlated with the reduction of dehydrogenase enzyme activity found in metabolically active cells. The measurement of the absorbance of the formazan was assessed using an ENVISION™ (Perkin Elmer) microplate reader at 492 nm. The calculated IC50 value is the concentration of the test compound that causes a 50% decrease in the absorbance.

[3] = system: PC-3; test: MTS Cellular Assay, PC-3; type: cell-based; conditions: Homo sapiens, PC-3, 72 hours
Experimental: as §1

[4] = system: DLD-1; test: MTS Cellular Assay, DLD-1; type: cell-based; conditions: Homo sapiens, DLD-1, 72 hours
Experimental: as §1

[5] = system: MDA-MB-231; test: MTS Cellular Assay, MDA-MB-231; type: cell-based; conditions: Homo sapiens, MDA-MB-231, 72 hours
Experimental: as §1

[6] = system: KATO III; test: MTS Cellular Assay, KATO III; type: cell-based; conditions: Homo sapiens, 72 hours
Experimental: as §1

[7] = system: PACA-2; test: MTS Cellular Assay, PACA-2; type: cell-based; conditions: PACA-2, 72 hours
Experimental: as §1

Row | SMILES | inhibition at 30 µM [1] | inhibition at 10 µM [2] | inhibition at 10 µM [3] | inhibition at 10 µM [4] | inhibition at 10 µM [5] | inhibition at 10 µM [6] | inhibition at 10 µM [7]
1 | Nc1nc(N2CCN(Cc3ccc(Cl)cc3Cl)c3ccccc3C2)c2cn[nH]c2n1 [Compound 32, 4-[1-(2,4-dichlorobenzyl)-1,2,3,5-tetrahydro-4H-1,4-benzodiazepin-4-yl]-1H-pyrazolo[3,4-d]pyrimidin-6-amine] | 50 to 79% | > 79% | < 50% | > 79% | < 50% | 50 to 79% | < 50%
2 | Nc1nc(N2CCN(Cc3cccc(C(F)(F)F)c3)c3ccccc3C2)c2cn[nH]c2n1 [Compound 21, 4-{1-[3-(trifluoromethyl)benzyl]-1,2,3,5-tetrahydro-4H-1,4-benzodiazepin-4-yl}-1H-pyrazolo[3,4-d]pyrimidin-6-amine] | 50 to 79% | < 50% | > 79% | > 79% | > 79% | > 79% | < 50%
3 | COc1ccc(OC)c(CN2CCN(c3nc(N)nc4[nH]ncc34)Cc3ccccc32)c1 [Compound 36, 4-[1-(2,5-dimethoxybenzyl)-1,2,3,5-tetrahydro-4H-1,4-benzodiazepin-4-yl]-1H-pyrazolo[3,4-d]pyrimidin-6-amine] | 50 to 79% | > 79% | > 79% | > 79% | > 79% | > 79% | > 79%
4 | CC(C)(C)c1ccc(CN2CCN(c3nc(N)nc4[nH]ncc34)Cc3ccccc32)cc1 [Compound 30, 4-[1-(4-tert-butylbenzyl)-1,2,3,5-tetrahydro-4H-1,4-benzodiazepin-4-yl]-1H-pyrazolo[3,4-d]pyrimidin-6-amine] | 50 to 79% | 50 to 79% | < 50% | > 79% | < 50% | < 50% | < 50%
5 | Nc1nc(N2CCN(Cc3ccccc3Cl)c3ccccc3C2)c2cn[nH]c2n1 [Compound 14, 4-[1-(2-chlorobenzyl)-1,2,3,5-tetrahydro-4H-1,4-benzodiazepin-4-yl]-1H-pyrazolo[3,4-d]pyrimidin-6-amine] | 50 to 79% | 50 to 79% | > 79% | > 79% | > 79% | > 79% | < 50%
6 | Nc1nc(N2CCN(Cc3ccc(Cl)cc3)c3ccccc3C2)c2cn[nH]c2n1 [Compound 23, 4-[1-(4-chlorobenzyl)-1,2,3,5-tetrahydro-4H-1,4-benzodiazepin-4-yl]-1H-pyrazolo[3,4-d]pyrimidin-6-amine] | < 50% | > 79% | < 50% | > 79% | 50 to 79% | < 50% | < 50%
7 | Cc1ccccc1CN1CCN(c2nc(N)nc3[nH]ncc23)Cc2ccccc21 [Compound 12, 4-[1-(2-methylbenzyl)-1,2,3,5-tetrahydro-4H-1,4-benzodiazepin-4-yl]-1H-pyrazolo[3,4-d]pyrimidin-6-amine] | 50 to 79% | – | – | – | – | – | –
8 | COc1cc2c(cc1OC)C(CCc1ccccc1)N(c1nc(N)nc3[nH]ncc13)CC2 (stereo not shown) [Compound 51, 4-[6,7-dimethoxy-1-(2-phenylethyl)-3,4-dihydroisoquinolin-2(1H)-yl]-1H-pyrazolo[3,4-d]pyrimidin-6-amine] | < 50% | – | – | – | – | – | –
9 | Nc1nc(N2CCN(Cc3cccc(Cl)c3)c3ccccc3C2)c2cn[nH]c2n1 [Compound 25, 4-[1-(3-chlorobenzyl)-1,2,3,5-tetrahydro-4H-1,4-benzodiazepin-4-yl]-1H-pyrazolo[3,4-d]pyrimidin-6-amine] | 50 to 79% | – | – | – | – | – | –
10 | Nc1nc(N2CCN(Cc3cccc(F)c3)c3ccccc3C2)c2cn[nH]c2n1 [Compound 6, 4-[1-(3-fluorobenzyl)-1,2,3,5-tetrahydro-4H-1,4-benzodiazepin-4-yl]-1H-pyrazolo[3,4-d]pyrimidin-6-amine] | 50 to 79% | – | – | – | – | – | –
